Marks after values point to notes of the source that are not given here. Blank lines part the entries; values can stand above or below the sequence they belong to.
Columns and labels:
[1] = tested on: T2 cells loaded with indicated peptides; assay: CTL activity generated from PBMC of different donors with IgE peptides on transfected Drosophila cells, chromium release; format: cell-based, human; settings: x: number of donor from whom anti-IgE CTL was generated; N: number of donor tested
Description: CD8 T cells were purified from individual donors and cultured with Drosophila cells transfected with HLA-A2, hB7-1, hB7-2, hICAM-1 and hLFA-3 molecules in the presence of indicated peptides. After being cultured for six days, low doses of hIL-2 was added to the culture and re-stimulated with peptides loaded autologous adherent cells for an additional seven days. The CTLs were then harvested and the specific killing activities were tested with ^51Cr labeled T2 cells that loaded with indicated peptides FIGS. 9A through 9D by a standard chromium release assay. [table]

L^d class I molecules = target: T1, L^d class I molecules (Mus musculus, UniProt P01897); assay: MHC class I stabilization assay on L^d transfected RMAS cells, flow cytometry; format: binding; settings: for Stabilization of MHC: L^d, ratio of fluorescence intensity (with peptide - without peptide)/without peptide; for Binding to L^d, in words: MHC class I stabilization assay, RMAS-L^d cells
T1 construct: expressed in transfected cells; host or cells: RMA-S (RMAS-L^d), TAP-deficient
T1 sequence (P01897 25-362): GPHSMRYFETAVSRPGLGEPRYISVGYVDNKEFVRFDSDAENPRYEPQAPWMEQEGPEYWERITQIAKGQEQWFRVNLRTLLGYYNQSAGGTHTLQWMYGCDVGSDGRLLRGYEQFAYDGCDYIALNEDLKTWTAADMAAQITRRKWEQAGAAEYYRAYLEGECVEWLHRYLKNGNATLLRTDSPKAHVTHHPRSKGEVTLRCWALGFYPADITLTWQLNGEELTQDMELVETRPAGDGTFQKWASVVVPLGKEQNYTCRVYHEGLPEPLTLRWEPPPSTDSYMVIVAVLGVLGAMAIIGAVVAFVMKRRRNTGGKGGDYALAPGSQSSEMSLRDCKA
T1 sequence (P01887 21-119 partner): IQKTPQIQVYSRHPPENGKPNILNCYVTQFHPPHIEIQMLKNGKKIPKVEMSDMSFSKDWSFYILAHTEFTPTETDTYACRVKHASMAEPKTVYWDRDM
Description: (§1) TAP 2 deficient RMA.S cells (FIG. 11B) or L^d transfected RMA.S cells (FIG. 11A) were incubated with indicated concentration of peptides at 28° C. overnight and then incubated at 37° C. for two to four hours. The cells were harvested and stained with mAb specific for L^d (FIG. 11B) or for D^b (FIG. 11A) and analyzed with FACScan.
(§2) The binding capacity of these synthetic peptides to L^d and D^b class I molecules were tested in an MHC class I stabilization assay (Cai et al. (1996) supra). Antigen-transporting deficient (TAP^−) RMAS cells (H-2^b) or L^d transfected RMAS (RMAS-L^d) cells were cultured in the presence of a titrated concentration of peptides at 27° C. After overnight culturing at 27° C., these cells were further cultured for two hours at 37° C. and the surface expression of L^d or D^b on the cells were analyzed by flow cytometry. […] Of the five peptides predicted bind to D^b, only IgE44 binds Db strongly and two peptides, IgE16 and IgE125, bind D^b weakly. […] Thus, a total of six peptides were identified that bind to either L^d or D^b MHC class I molecules.

D^b class I molecules = target: T2, D^b class I molecules (Mus musculus, UniProt P01899); assay: MHC class I stabilization assay on TAP- RMAS cells (H-2^b), flow cytometry; format: binding; settings: for Binding to / stabilization of D^b, in words: MHC class I stabilization assay, RMAS cells; for Stabilization of MHC: D^b, ratio of fluorescence intensity (with peptide - without peptide)/without peptide
T2 construct: Antigen-transporting deficient (TAP^−) RMAS cells (H-2^b); endogenous in cells; host or cells: RMA-S (TAP 2 deficient, H-2^b)
T2 sequence (P01899 25-362): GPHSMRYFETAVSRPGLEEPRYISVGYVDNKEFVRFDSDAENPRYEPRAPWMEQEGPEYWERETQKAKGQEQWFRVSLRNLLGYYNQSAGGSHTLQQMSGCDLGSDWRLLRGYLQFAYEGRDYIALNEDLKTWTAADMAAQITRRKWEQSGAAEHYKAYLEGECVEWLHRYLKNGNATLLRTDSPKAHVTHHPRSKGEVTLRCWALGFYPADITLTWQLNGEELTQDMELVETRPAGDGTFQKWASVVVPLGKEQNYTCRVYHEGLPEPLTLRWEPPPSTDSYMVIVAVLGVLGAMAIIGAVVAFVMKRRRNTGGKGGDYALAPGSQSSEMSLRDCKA
T2 sequence (P01887 21-119 partner): T1 sequence (P01887 21-119 partner)
Description: as §1, §2

[2] = tested on: peptides loaded RMAS (K^b, D^b) cells; assay: In vitro generation of IgE peptide specific CTLs, 51Cr release against peptide loaded RMAS cells; format: cell-based; settings: naive mouse CD8 T cells, Drosophila APC with D^b, B7-1, ICAM-1; Day 9
Description: CD8^+ T cells were purified from lymph nodes of CBF1/J mice (FIGS. 2A, 2B and 2D) or from B6, interferon γ knock out mice (IFNγ^−/−) or perform (PF^−/−) knock out mice (FIG. 2C). The purified CD8 T cells were cultured with indicated IgE peptides presented by SC2 cells transfected with D^b MHC class I, B7-1 (CD80) and ICAM-1 (CD54) molecules. Low dose of recombinant IL-2 (20 units/ml) was added to the culture at Day 3 and every other day thereafter. On Day 9, CTL activity was measured against ^51Cr labeled RMAS cells loaded with or without indicated IgE peptides. In FIG. 2D, anti-D^b mAb (20 μg/ml) was added at the beginning of CTL assay.
(§3) CTL Assay: Epitope-bearing (target) cells are used as target cells in a ^51 Cr release assay. 5×10^6 target cells in RPMI medium containing 4% fetal calf serum, 1% HEPES buffer and 0.25% gentamycin are labeled at 37° C. for one hour with 0.1 mCi ^51Cr. Cells are washed four times and diluted to 10^5 cells/ml in RPMI with 10% fetal bovine serum (HyClone). In a 96-well microtiter plate, 100 μl effector CTLs and 100 μl peptide-loaded, ^51Cr-labeled target cells are combined at ratios of 100:1, 20:1 and 4:1 (effector: target). K562 cells are added at a ratio of 20:1 (K562) to reduce natural killer cell background lysis. Non-specific lysis is assessed using cells labeled with ^51Cr as described above, but not bearing the epitope cell line. Controls to measure spontaneous release and maximum release of ^51Cr are included in duplicate. After incubation at 37° C. for six hours, the plates are centrifuged and the supernatants counted to measure ^51Cr release. Percent specific lysis is calculated using the following equation: […]
The ability of these IgE peptides in eliciting CTL responses was evaluated in vitro. As previously described, Drosophila cells transfected with MHC class I plus B7-1 and ICAM-1 are potent antigen presenting cells (APC) in activation of resting naïve CD8 T cells in vitro. Resting naïve CD8 T cells were purified from mouse lymph nodes and cultured with peptide loaded Drosophila cells transfected with L^d or D^b plus B7-1 and ICAM-1 in the absence of cytokines. IL-2 (20units/ml) was added at Day 3 and every other day thereafter. The CTL activity towards peptides loaded RMAS (K^b, D^b) cells or RMAS-L^d cells were measured on Day 9.

[3] = tested on: peptides loaded RMAS-L^d cells; assay: In vitro generation of IgE peptide specific CTLs, 51Cr release against peptide loaded RMAS-L^d cells; format: cell-based; settings: naive mouse CD8 T cells, Drosophila APC with L^d, B7-1, ICAM-1; Day 9
Description: as §3
The ability of these IgE peptides in eliciting CTL responses was evaluated in vitro. […] The CTL activity towards peptides loaded RMAS (K^b, D^b) cells or RMAS-L^d cells were measured on Day 9.

Sequence: TLTVTSTLPV (Peptide antigen) [IgE 884]
Specific Killing (x/N) [1]: 8/8

Sequence: SLLTVSGAWA (Peptide antigen) [IgE 876]
Specific Killing (x/N) [1]: 0/5

Sequence: QVMDVDLSTA (Peptide antigen) [IgE 898]
Specific Killing (x/N) [1]: 3/4

Sequence: WVDNKTFSV [IgE 96]
Specific Killing (x/N) [1]: 3/8

Sequence: TLACLIQNFM (Peptide antigen) [IgE 895]
Specific Killing (x/N) [1]: 3/4

Sequence: SLNGTTMTL [IgE 47]
Specific Killing (x/N) [1]: 7/8

Binding to L^d, in words (L^d class I molecules): strongly | Binding to / stabilization of D^b, in words (D^b class I molecules; listed as IgE366): binds both L^d and D^b
Sequence: GSNQGFFIF (Peptide antigen) [IgE 366]
Stabilization of MHC (L^d class I molecules): ++^c (more than two fold is calculate as “++”) | Binding to / stabilization of D^b, in words (D^b class I molecules): ^cIgE 366 also stabilizes D^b class I molecules. | Specific CTL activity induced by the peptide, D^b restricted [2]: induce D^b restricted CTLs | Specific CTL activity induced by the peptide, L^d restricted [3]: inducing L^d restricted CTLs

Sequence: WLSDRTYTC (Peptide antigen) [IgE 185]
Specific Killing (x/N) [1]: 0/8

Sequence: QMFTCRVAHT (Peptide antigen) [IgE 887]
Specific Killing (x/N) [1]: 1/4

Sequence: WLEDGQVMDV (Peptide antigen) [IgE 883]
Specific Killing (x/N) [1]: 1/5

Binding to L^d, in words (L^d class I molecules): strongly
Sequence: KPCKGTASM (Peptide antigen) [IgE 11]
Stabilization of MHC (L^d class I molecules): ++ (more than two fold is calculate as “++”) | Specific CTL activity induced by the peptide, L^d restricted [3]: induces antigen specific CTLs

Binding to / stabilization of D^b, in words (D^b class I molecules): strongly
Sequence: MSTVNFPAL (Peptide antigen) [IgE 44]
Stabilization of MHC (D^b class I molecules): ++ (more than two fold is calculate as “++”) | Specific CTL activity induced by the peptide, D^b restricted [2]: specifically lysed

Stabilization of MHC (D^b class I molecules): + (less than two-fold is scored as “+”) | Binding to / stabilization of D^b, in words (D^b class I molecules): weakly
Sequence: TASMTLGCL (Peptide antigen) [IgE 16]
Specific CTL activity induced by the peptide, D^b restricted [2]: No specific CTL activity

Stabilization of MHC (D^b class I molecules): + (less than two-fold is scored as “+”) | Binding to / stabilization of D^b, in words (D^b class I molecules): weakly
Sequence: GHILNDVSV (Peptide antigen) [IgE 125]
Specific CTL activity induced by the peptide, D^b restricted [2]: No specific CTL activity

Stabilization of MHC (L^d class I molecules): + (less than two-fold is scored as “+”) | Binding to L^d, in words (L^d class I molecules): weakly
Sequence: HSTIQLYCF (Peptide antigen) [IgE 114]

Sequence: YATISLLTV (Peptide antigen) [IgE 890]
Specific Killing (x/N) [1]: 4/5
